Molecular target: T1, cloned human H3 receptors (Homo sapiens, UniProt Q9Y5N1)
T1 construct: expressed in transfected cells; host or cells: SK-N-MC cells
Experiment: H3 Receptor Binding (Human)
Details: cloned human H3 receptors stably expressed in SK-N-MC cells; average of the results obtained
Protocol: Binding of compounds to the cloned human H3 receptors, stably expressed in SK-N-MC cells, was performed as described by Barbier, A. J. et al. (Br. J. Pharmacol. 2004, 143(5), 649-661). Data for compounds tested in this assay are presented in Table 1 as an average of the results obtained.

T1 sequence (Q9Y5N1 whole entry): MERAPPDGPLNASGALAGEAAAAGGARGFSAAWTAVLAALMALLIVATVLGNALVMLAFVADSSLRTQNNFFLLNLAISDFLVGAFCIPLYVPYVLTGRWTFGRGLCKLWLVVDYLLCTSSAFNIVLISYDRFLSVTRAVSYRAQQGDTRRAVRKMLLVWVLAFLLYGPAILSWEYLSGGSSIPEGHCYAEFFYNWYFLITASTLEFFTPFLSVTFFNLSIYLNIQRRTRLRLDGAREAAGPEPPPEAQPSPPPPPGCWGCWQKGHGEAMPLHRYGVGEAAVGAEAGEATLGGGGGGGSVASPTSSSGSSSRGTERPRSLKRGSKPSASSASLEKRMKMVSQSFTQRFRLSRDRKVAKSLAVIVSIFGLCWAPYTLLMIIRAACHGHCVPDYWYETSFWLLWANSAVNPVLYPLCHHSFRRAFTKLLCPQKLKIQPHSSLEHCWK

Ki	SMILES
860 nM	O=C(C1CCCCC1)N1CCc2cc(CN3CCN(C4CCC4)CC3)ccc2C1 [Example 170, [6-(4-Cyclobutyl-piperazin-1-ylmethyl)-3,4-dihydro-1H-isoquinolin-2-yl]-cyclohexyl-methanone]
18 nM	CN(C)c1cccc(C(=O)N2CCc3cc(C(=O)N4CCN(C5CCC5)CC4)ccc3C2)c1 [Example 116, [6-(4-Cyclobutyl-piperazine-1-carbonyl)-3,4-dihydro-1H-isoquinolin-2-yl]-(3-dimethylamino-phenyl)-methanone]
70 nM	N#Cc1cccc(C(=O)N2CCc3cc(C(=O)N4CCN(C5CCCCC5)CC4)ccc3C2)c1 [Example 80]
13 nM	O=C(C1CCCCC1)N1CCc2cc(CN3CCN4CCCCC4C3)ccc2C1 (stereo not shown) [Example 168, Cyclohexyl-[6-(octahydro-pyrido[1,2-a]pyrazin-2-ylmethyl)-3,4-dihydro-1H-isoquinolin-2-yl]-methanone]
12 nM	Cc1cccc(C(=O)N2CCc3cc(C(=O)N4CCN(C5CCC5)CC4)ccc3C2)c1 [Example 120, [6-(4-Cyclobutyl-piperazine-1-carbonyl)-3,4-dihydro-1H-isoquinolin-2-yl]-m-tolyl-methanone]
20 nM	O=C(c1ccc2c(c1)CCN(Cc1ccc(C(F)(F)F)cc1)C2)N1CCN(C2CCC2)CC1 [Example 14, (4-Cyclobutyl-piperazin-1-yl)-[2-(4-trifluoromethyl-benzyl)-1,2,3,4-tetrahydro-isoquinolin-6-yl]-methanone]
30 nM	CN(C)[C@H]1CCN(C(=O)c2ccc3c(c2)CCN(C(=O)C2CCCCC2)C3)C1 [Example 156, (S)-Cyclohexyl-[6-(3-dimethylamino-pyrrolidine-1-carbonyl)-3,4-dihydro-1H-isoquinolin-2-yl]-methanone]
70 nM	COc1ccccc1C(=O)N1CCc2cc(C(=O)N3CCN(C4CCCCC4)CC3)ccc2C1 [Example 78, (4-Cyclohexyl-piperazin-1-yl)-[2-(2-methoxy-benzoyl)-1,2,3,4-tetrahydro-isoquinolin-6-yl]-methanone]
340 nM	CCCN1CCc2cc(C(=O)N3CCC(C(C)(C)C)CC3)ccc2C1 [Example 182, (4-tert-Butyl-piperidin-1-yl)-(2-propyl-1,2,3,4-tetrahydro-isoquinolin-6-yl)-methanone]
15 nM	CC(C)(C)C(=O)N1CCc2cc(C(=O)N3CCN(C4CCC4)CC3)ccc2C1 [Example 41, 1-[6-(4-Cyclobutyl-piperazine-1-carbonyl)-3,4-dihydro-1H-isoquinolin-2-yl]-2,2-dimethyl-propan-1-one]
16 nM	O=C(c1ccc2c(c1)CCNC2)N1CCN2CCCCC2C1 (stereo not shown) [Example 10, (Octahydro-pyrido[1,2-a]pyrazin-2-yl)-(1,2,3,4-tetrahydro-isoquinolin-6-yl)-methanone]
340 nM	CC(C)(C)C1CCN(C(=O)c2ccc3c(c2)CCN(C2CCC2)C3)CC1 [Example 188, (4-tert-Butyl-piperidin-1-yl)-(2-cyclobutyl-1,2,3,4-tetrahydro-isoquinolin-6-yl)-methanone]
257 nM	Cc1ccc(C(=O)N2CCc3cc(C(=O)N4CCN(C5CCCCC5)CC4)ccc3C2)cc1 [Example 83, (4-Cyclohexyl-piperazin-1-yl)-[2-(4-methyl-benzoyl)-1,2,3,4-tetrahydro-isoquinolin-6-yl]-methanone]
16 nM	N#Cc1ccc(C(=O)N2CCc3cc(C(=O)N4CCN5CCCCC5C4)ccc3C2)cc1 (stereo not shown) [Example 95, 4-[6-(Octahydro-pyrido[1,2-a]pyrazine-2-carbonyl)-3,4-dihydro-1H-isoquinoline-2-carbonyl]-benzonitrile]
1 nM	O=C(c1ccc2c(c1)CCN(C(=O)c1ccc(F)cc1)C2)N1CCCN(C2CCC2)CC1 [Example 134, [6-(4-Cyclobutyl-[1,4]diazepane-1-carbonyl)-3,4-dihydro-1H-isoquinolin-2-yl]-(4-fluoro-phenyl)-methanone]

SMILES	Ki
CCCN1CCc2cc(C(=O)N3CCOCC3)ccc2C1 [Example 180, Morpholin-4-yl-(2-propyl-1,2,3,4-tetrahydro-isoquinolin-6-yl)-methanone]	9000 nM
